Reference: PMC4486022 (Cell reports, 2014)

Tests used:
[1] = target: T1, yIre1 (recombinant yeast IRE1) (Saccharomyces cerevisiae, UniProt P32361); test: in vitro RNase assay, HAC1 and BLOS1 RNA cleavage; type: biochemical; details: activator, 100 μM, 1 μM yIre1; Q site at kinase/RNase interface
T1 sequence (P32361 641-1115 limits assumed): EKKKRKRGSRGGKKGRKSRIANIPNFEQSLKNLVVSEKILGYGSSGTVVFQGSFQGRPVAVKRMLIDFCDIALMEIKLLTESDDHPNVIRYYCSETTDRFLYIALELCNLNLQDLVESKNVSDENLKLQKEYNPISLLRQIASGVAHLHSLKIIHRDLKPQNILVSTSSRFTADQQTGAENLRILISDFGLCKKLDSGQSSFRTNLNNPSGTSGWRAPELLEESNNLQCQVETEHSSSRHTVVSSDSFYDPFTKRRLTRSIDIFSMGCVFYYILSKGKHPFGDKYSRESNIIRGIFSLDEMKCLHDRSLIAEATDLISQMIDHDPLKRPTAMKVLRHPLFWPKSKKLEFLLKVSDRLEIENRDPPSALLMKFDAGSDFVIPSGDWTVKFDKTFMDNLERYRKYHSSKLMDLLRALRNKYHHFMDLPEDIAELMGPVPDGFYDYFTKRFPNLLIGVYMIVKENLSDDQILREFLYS

[2] = target: T1, yIre1 (recombinant yeast IRE1); test: in vitro RNase assay, radiolabeled HAC1 RNA cleavage; type: biochemical

IC50 [2]	Compound	in vitro RNase assay, HAC1 and BLOS1 RNA cleavage (activation) [1]
–	O=c1c(O)c(-c2ccc(O)c(O)c2)oc2cc(O)cc(O)c12 [quercetin]	binding of Q to Ire1 was sufficient to promote cleavage of RIDD substrate RNA
~30 µM	O=S(=O)(N=Cc1c(O)ccc2ccccc12)c1cccs1 [STF-083010]	–
